In patent publication US20180201592A1, “2-AMINO-1,3,4-THIADIAZINE AND 2-AMINO-1,3,4-OXADIAZINE BASED ANTIFUNGAL AGENTS” (F2G Limited, priority 2015, published 2018):
Read-outs that look alike come from different tables or passages of the source.

What was measured:
Aspergillus fumigatus = experiment: Minimum inhibitory concentration, YAG medium; type: cell-based; details: banded MIC grade
Summary of the method: (§1)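 Spores from 5-day Sabouraud agar cultures were suspended in YAG medium (1% glucose, 1% ammonium chloride, 0.5% yeast extract) at 1-2×10^4 cfu/mL and exposed to doubling dilutions of compound (50-0.05 mg/L) for 24 hrs at 35° C. MIC was the lowest concentration giving >70% growth inhibition by OD485 versus drug-free control.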

A. fumigatus 210 [1] = experiment: Minimum inhibitory concentration, YAG medium; type: cell-based, Aspergillus fumigatus; details: banded MIC grade
Summary of the method: as §1

A. terreus 49 [2] = experiment: Minimum inhibitory concentration, YAG medium; type: cell-based, Aspergillus terreus; details: banded MIC grade
Summary of the method: (§2)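 MIC values (mg/L) were derived from well optical density at 485 nm. Plates with Aspergillus spores and doubling aqueous dilutions of compound (5 mg/mL DMSO stock) had been incubated at 35° C for 24 hrs.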

Aspergillus flavus = experiment: Minimum inhibitory concentration, YAG medium; type: cell-based; details: banded MIC grade
Summary of the method: as §2

Aspergillus niger = experiment: Minimum inhibitory concentration, YAG medium; type: cell-based; details: banded MIC grade
Summary of the method: as §2

Aspergillus terreus = experiment: Minimum inhibitory concentration, YAG medium; type: cell-based; details: banded MIC grade
Summary of the method: as §2

A. flavus = experiment: Minimum inhibitory concentration, RPMI medium; type: cell-based; details: banded MIC grade
Summary of the method: (§3)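 Thawed 5 mg/mL DMSO stocks are vortexed, diluted into sterile water and serially halved in water. The MIC test is then run in RPMI 1640 at 35° C for 24-48 hrs. Wells are read at OD 485 nm.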

A. niger = experiment: Minimum inhibitory concentration, RPMI medium; type: cell-based; details: banded MIC grade
Summary of the method: as §3

A. terreus 49 [3] = experiment: Minimum inhibitory concentration, RPMI medium; type: cell-based; details: banded MIC grade
Summary of the method: as §3

A. terreus = experiment: Minimum inhibitory concentration, RPMI medium; type: cell-based; details: banded MIC grade
Summary of the method: as §3

C. albicans = experiment: Minimum inhibitory concentration, RPMI medium; type: cell-based; details: banded MIC grade; for MIC: Candida albicans, RPMI media
Summary of the method: as §3

C. glabrata = experiment: Minimum inhibitory concentration, RPMI medium; type: cell-based; details: banded MIC grade
Summary of the method: as §3

C. krusei = experiment: Minimum inhibitory concentration, RPMI medium; type: cell-based; details: banded MIC grade
Summary of the method: as §3

C. parapsilosis = experiment: Minimum inhibitory concentration, RPMI medium; type: cell-based; details: banded MIC grade; for MIC: Lodderomyces parapsilosis, RPMI media
Summary of the method: as §3

C. tropicalis = experiment: Minimum inhibitory concentration, RPMI medium; type: cell-based; details: banded MIC grade
Summary of the method: as §3

A. fumigatus 210 [4] = experiment: Minimum inhibitory concentration, RPMI medium; type: cell-based; details: banded MIC grade
Method: (§4) Between 1 and 5 mgs of compound were accurately weighed out into a sterile Eppendorf tube. The compound was dissolved in DMSO to give a solution containing 5 mg/mL. Tubes were stored at −20° C. until required.
(§5) On the day of testing thawed solutions were vortex mixed to ensure homogeneity. 30 μL of solution was removed and added to 570 μL of sterile water in a separate sterile Eppendorf. The thoroughly mixed solution was used to prepare a series of doubling dilutions in water, in a deep well plate. Thirteen replicate plates were prepared using a Minitrak by aspirating 20 μL from each well into eleven clear polystyrene 96 well plates.
(§6) Assays were also performed in RPMI medium (Roswell Park Memorial Media 1640). To perform MIC tests in this medium, dilutions of compounds are prepared in microtitre plates as described above. Fungal strains to be tested are grown and harvested in an identical manner to that described above, and each organism suspension was diluted in RPMI medium, typically containing 2% glucose and 0.135 M MOPS buffer (pH 7.0) to 0.5-2×10^4cfu/mL, rather than in YAG medium. 80 μL of an organism suspension was added to each well of the plate containing drug dilutions.
(§7) This produced MIC plates with a drug range 50-0.05 mg/L and organism inocula of 1-2×10^4 cfu/mL. All plates were incubated for 24-48 hrs at 35° C. Growth was assessed by monitoring the optical density at 485 nm for each well. The MIC of a compound is the lowest drug concentration that inhibits growth of an organism by >80% compared with a drug free control. The following organisms were tested: C. albicans, C. parapsilosis, C. tropicalis, C. glabrata, C. krusei, A. niger, A. fumigatus, A. terreus, A. flavus, A. terreus 49, and A. fumigatus 210.

A. fumigatus = experiment: Minimum inhibitory concentration, RPMI medium; type: cell-based; details: banded MIC grade
Method: as §4, §5, §6, §7

NC1=NN=C(CCOCCOc2ccccc2)CS1
2 (2: 5-20 mg/L): MIC grade, C. GLABRATA, RPMI media (C. glabrata)
4 (4: <1 mg/L): MIC grade, A. TERREUS 49, RPMI media (A. terreus 49 [3]) | MIC grade, A. TERREUS, RPMI media (A. terreus) | MIC grade, C. KRUSEI, RPMI media (C. krusei) | MIC grade, C. PARAPSILOSIS, RPMI media (C. parapsilosis)
3 (3: 1-5 mg/L): MIC grade, A. FLAVUS, RPMI media (A. flavus) | MIC grade, A. NIGER, RPMI media (A. niger) | MIC grade, C. ALBICANS, RPMI media (C. albicans) | MIC grade, C. TROPICALIS, RPMI media (C. tropicalis) | MIC grade, A. FUMIGATUS 210, RPMI media (A. fumigatus 210 [4]) | MIC grade, A. FUMIGATUS, RPMI media (A. fumigatus)
4 (4: <0.2 mg/L): MIC grade, A. FUMIGATUS, YAG media (Aspergillus fumigatus) | MIC grade, A. FUMIGATUS 210, YAG media (A. fumigatus 210 [1]) | MIC grade, A. TERREUS 49, YAG media (A. terreus 49 [2]) | MIC grade, A. FLAVUS, YAG media (Aspergillus flavus) | MIC grade, A. NIGER, YAG media (Aspergillus niger) | MIC grade, A. TERREUS, YAG media (Aspergillus terreus)

NC1=NN=C(CCCCOCc2ccccc2CCc2ccccc2)CS1
1 (1: ≥5 mg/L): MIC grade, A. FUMIGATUS, YAG media (Aspergillus fumigatus) | MIC grade, A. FUMIGATUS 210, YAG media (A. fumigatus 210 [1]) | MIC grade, A. TERREUS 49, YAG media (A. terreus 49 [2]) | MIC grade, A. NIGER, YAG media (Aspergillus niger)
2 (2: 1-5 mg/L): MIC grade, A. FLAVUS, YAG media (Aspergillus flavus) | MIC grade, A. TERREUS, YAG media (Aspergillus terreus)
2 (2: 5-20 mg/L): MIC grade, A. TERREUS 49, RPMI media (A. terreus 49 [3]) | MIC grade, A. TERREUS, RPMI media (A. terreus) | MIC grade, C. ALBICANS, RPMI media (C. albicans) | MIC grade, C. KRUSEI, RPMI media (C. krusei) | MIC grade, C. PARAPSILOSIS, RPMI media (C. parapsilosis) | MIC grade, C. TROPICALIS, RPMI media (C. tropicalis)
1 (1: ≥20 mg/L): MIC grade, A. FLAVUS, RPMI media (A. flavus) | MIC grade, A. NIGER, RPMI media (A. niger) | MIC grade, C. GLABRATA, RPMI media (C. glabrata) | MIC grade, A. FUMIGATUS 210, RPMI media (A. fumigatus 210 [4]) | MIC grade, A. FUMIGATUS, RPMI media (A. fumigatus)

NC1=NN=C(CCCCOCc2ccccc2C2CC2)CS1
2 (2: 1-5 mg/L): MIC grade, A. FUMIGATUS, YAG media (Aspergillus fumigatus) | MIC grade, A. FUMIGATUS 210, YAG media (A. fumigatus 210 [1]) | MIC grade, A. TERREUS 49, YAG media (A. terreus 49 [2]) | MIC grade, A. NIGER, YAG media (Aspergillus niger) | MIC grade, A. TERREUS, YAG media (Aspergillus terreus)
2 (2: 5-20 mg/L): MIC grade, A. TERREUS 49, RPMI media (A. terreus 49 [3]) | MIC grade, A. TERREUS, RPMI media (A. terreus) | MIC grade, C. GLABRATA, RPMI media (C. glabrata) | MIC grade, C. KRUSEI, RPMI media (C. krusei) | MIC grade, A. FUMIGATUS, RPMI media (A. fumigatus)
3 (3: 1-5 mg/L): MIC grade, C. ALBICANS, RPMI media (C. albicans) | MIC grade, C. PARAPSILOSIS, RPMI media (C. parapsilosis) | MIC grade, C. TROPICALIS, RPMI media (C. tropicalis)
1 (1: ≥20 mg/L): MIC grade, A. FLAVUS, RPMI media (A. flavus) | MIC grade, A. NIGER, RPMI media (A. niger) | MIC grade, A. FUMIGATUS 210, RPMI media (A. fumigatus 210 [4])
3 (3: 0.2-1 mg/L): MIC grade, A. FLAVUS, YAG media (Aspergillus flavus)

NC1=NN=C(CCCCOCc2cc(Cl)cc(Cl)c2)CS1
2 (2: 1-5 mg/L): MIC grade, A. FUMIGATUS 210, YAG media (A. fumigatus 210 [1])
4 (4: <0.2 mg/L): MIC grade, A. FLAVUS, YAG media (Aspergillus flavus)
3 (3: 0.2-1 mg/L): MIC grade, A. FUMIGATUS, YAG media (Aspergillus fumigatus) | MIC grade, A. TERREUS 49, YAG media (A. terreus 49 [2]) | MIC grade, A. NIGER, YAG media (Aspergillus niger) | MIC grade, A. TERREUS, YAG media (Aspergillus terreus)
1 (1: ≥20 mg/L): MIC grade, A. FUMIGATUS 210, RPMI media (A. fumigatus 210 [4])
3 (3: 1-5 mg/L): MIC grade, C. PARAPSILOSIS, RPMI media (C. parapsilosis)
2 (2: 5-20 mg/L): MIC grade, A. FLAVUS, RPMI media (A. flavus) | MIC grade, A. NIGER, RPMI media (A. niger) | MIC grade, A. TERREUS 49, RPMI media (A. terreus 49 [3]) | MIC grade, A. TERREUS, RPMI media (A. terreus) | MIC grade, C. ALBICANS, RPMI media (C. albicans) | MIC grade, C. GLABRATA, RPMI media (C. glabrata) | MIC grade, C. KRUSEI, RPMI media (C. krusei) | MIC grade, C. TROPICALIS, RPMI media (C. tropicalis) | MIC grade, A. FUMIGATUS, RPMI media (A. fumigatus)

NC1=NN=C(CCCCOCc2ccc(Cl)cc2F)CS1
3 (3: 1-5 mg/L): MIC grade, A. NIGER, RPMI media (A. niger) | MIC grade, A. TERREUS 49, RPMI media (A. terreus 49 [3]) | MIC grade, A. TERREUS, RPMI media (A. terreus) | MIC grade, C. GLABRATA, RPMI media (C. glabrata)
2 (2: 5-20 mg/L): MIC grade, A. FUMIGATUS 210, RPMI media (A. fumigatus 210 [4]) | MIC grade, A. FUMIGATUS, RPMI media (A. fumigatus)
4 (4: <0.2 mg/L): MIC grade, A. FUMIGATUS, YAG media (Aspergillus fumigatus) | MIC grade, A. FUMIGATUS 210, YAG media (A. fumigatus 210 [1]) | MIC grade, A. TERREUS 49, YAG media (A. terreus 49 [2]) | MIC grade, A. FLAVUS, YAG media (Aspergillus flavus) | MIC grade, A. TERREUS, YAG media (Aspergillus terreus)
4 (4: <1 mg/L): MIC grade, A. FLAVUS, RPMI media (A. flavus) | MIC grade, C. ALBICANS, RPMI media (C. albicans) | MIC grade, C. KRUSEI, RPMI media (C. krusei) | MIC grade, C. PARAPSILOSIS, RPMI media (C. parapsilosis) | MIC grade, C. TROPICALIS, RPMI media (C. tropicalis)
3 (3: 0.2-1 mg/L): MIC grade, A. NIGER, YAG media (Aspergillus niger)

CCOC(=O)c1ccc(C2=CSC(N)=NN2C)cc1 [ethyl 4-(2-amino-4-methyl-1,3,4-thiadiazin-5-yl)benzoate]
0.2 to 1 µg/mL: MIC (A. terreus 49 [2]; Aspergillus terreus, 49, YAG media) | MIC (Aspergillus niger; Aspergillus niger, YAG media)
< 1 µg/mL: MIC (C. albicans; read-out: MIC grade C. ALBICANS) | MIC (C. parapsilosis; read-out: MIC grade C. PARAPSILOSIS) | MIC (C. parapsilosis; read-out: MIC grade, C. PARAPSILOSIS, RPMI media)
< 0.2 µg/mL: MIC (Aspergillus fumigatus; Aspergillus fumigatus, YAG media) | MIC (A. fumigatus 210 [1]; Aspergillus fumigatus, 210, YAG media) | MIC (Aspergillus flavus; Aspergillus flavus, YAG media) | MIC (Aspergillus terreus; Aspergillus terreus, YAG media)
1 to 5 µg/mL: MIC (C. albicans; read-out: MIC grade, C. ALBICANS, RPMI media) | MIC (C. tropicalis; Candida tropicalis, RPMI media)
